{
  "source": "paper PMC12444839",
  "about": "“Development of Carborane‐Based Halogenated Naphthyridinone‐Analogues as Cannabinoid Receptor Type 2 (CB2R) Ligands” (Chemmedchem, 2025)",
  "key": {"human CB2R": {"biological_target": "T1, human CB2R (Homo sapiens, UniProt P34972)", "T1 construct": "expressed in transfected cells; host or cells: Chinese hamster ovary (CHO) cells, stably transfected; crude membrane homogenates", "T1 sequence (P34972 whole entry)": "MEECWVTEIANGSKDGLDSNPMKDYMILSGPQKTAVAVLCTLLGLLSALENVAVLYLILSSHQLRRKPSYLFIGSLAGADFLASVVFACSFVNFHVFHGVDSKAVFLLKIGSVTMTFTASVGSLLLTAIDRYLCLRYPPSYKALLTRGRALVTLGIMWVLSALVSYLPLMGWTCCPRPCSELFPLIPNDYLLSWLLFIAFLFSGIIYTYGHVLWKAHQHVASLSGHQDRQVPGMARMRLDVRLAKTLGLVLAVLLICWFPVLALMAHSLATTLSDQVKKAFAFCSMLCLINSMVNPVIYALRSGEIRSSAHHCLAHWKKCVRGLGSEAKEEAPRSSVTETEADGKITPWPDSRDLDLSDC", "experiment": "in vitro binding affinity assay, membrane homogenates of CHO cells stably transfected with human CB2R, radioligand [3H]WIN55212-2", "conditions": "for Selectivity index (SI): SI = K iCB1R/K iCB2R; for Ki / K iCB2R mean: human CB2R, CHO membranes, [3H]WIN55212-2, mean of two values; for Ki: read-out: K iCB2R mean", "text": "(§1) The eight target compounds 2 o , m , p , 3 o , m , p , 4, and 5 have been investigated in in vitro binding affinity assays using crude membrane preparations obtained from Chinese hamster ovary cells stably transfected with either human CB1R or CB2R and the target‐specific radioligands [ ^ 3 H]SR141716A and [ ^ 3 H]WIN55212‐2, respectively (structures shown in Figure S90, Supporting Information).\n(§2) The affinity assays have been performed with membrane homogenates from Chinese hamster ovary cells (CHO) stably transfected either with human CB2R or CB1R. Already published protocols have been used.^[ [99] ^]"}, "human CB1R": {"biological_target": "T2, human CB1R (Homo sapiens, UniProt P21554)", "T2 construct": "expressed in transfected cells; host or cells: Chinese hamster ovary (CHO) cells, stably transfected; crude membrane homogenates", "T2 sequence (P21554 whole entry)": "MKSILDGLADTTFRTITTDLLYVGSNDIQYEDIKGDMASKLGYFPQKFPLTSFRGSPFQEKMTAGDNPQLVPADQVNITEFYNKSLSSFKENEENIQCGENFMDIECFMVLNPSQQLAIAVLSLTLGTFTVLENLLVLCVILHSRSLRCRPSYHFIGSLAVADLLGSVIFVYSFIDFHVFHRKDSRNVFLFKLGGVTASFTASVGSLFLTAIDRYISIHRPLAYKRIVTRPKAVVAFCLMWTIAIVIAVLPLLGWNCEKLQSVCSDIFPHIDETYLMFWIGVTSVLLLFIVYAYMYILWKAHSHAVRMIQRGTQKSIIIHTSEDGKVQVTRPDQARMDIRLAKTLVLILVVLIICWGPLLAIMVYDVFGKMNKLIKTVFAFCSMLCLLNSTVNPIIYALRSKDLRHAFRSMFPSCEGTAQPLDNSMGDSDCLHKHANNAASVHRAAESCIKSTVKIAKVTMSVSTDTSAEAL", "experiment": "in vitro binding affinity assay, membrane homogenates of CHO cells stably transfected with human CB1R, radioligand [3H]SR141716A", "conditions": "CHO membranes, mean of two values (c: mean of three values), read-out: K iCB1R mean", "text": "as §1, §2"}, "[1]": {"experiment": "stability in DMSO/H2O (1:1, v/v) by HPLC-UV-MS", "assay_type": "physicochemical", "conditions": "RP-HPLC", "description": "The stability was determined analogously to the purity determination and as described in a previous publication.^[ [79] ^] Instead of CH3CN or MeOH, a solvent mixture of DMSO/H2O (1:1, v/v) was used for all samples, as well as the blank measurements. Measurements were conducted directly after solvent addition and up to three days (Figure S82–S89, Supporting Information).\n5 Determi naƟon of the Stability of Compounds 2o,m,p, 3o,m,p, 4, and 5\nThe stability measurements have been performed with an HPLC-UV-MS on an RP column. Blank samples of pure DMSO/H20 (1:1, v/v) have been measured prior to the target compounds. The target compounds have been dissolved in DMSO/H2O (1:1, v/v) for stability determinaƟon. The measurements have been started directly aŌer the addiƟon of the water. The double peaks or shoulders of the signals of the compound are related to the column that has been used. Broad signals have been obser ved in case of the nido-carborane derivaƟves .\nFigure S82. RP-HPLC chromatograms of blank (DMSO/H2O, black and dark blue) and compound 2o, retention time: 11.4 min, purity after 2.5 d: […]"}, "CB2R [2]": {"biological_target": "CB2R", "parameters": "method as in PMID 36944112", "conditions": "previously reported; L7 (ortho): one value; read-out: K iCB2R mean; cited from earlier work"}, "CB2R [3]": {"system": "CB2R", "experiment": "CB2R binding affinity, literature value of Lucchesi et al., other testing conditions", "conditions": "SI = K iCB1R/K iCB2R, from literature values", "text": "Table 1 Binding affinities of target compounds 2 o , m , p , 3 o , m , p , 4, and 5. | column: Selectivity index (SI) ^e)"}, "CB1R": {"biological_target": "CB1R", "parameters": "method as in PMID 25272206", "conditions": "mean of at least three separate experiments in duplicate, other testing conditions; read-out: K iCB1R mean; cited from earlier work"}, "CB2R [4]": {"biological_target": "CB2R", "parameters": "method as in PMID 25272206", "conditions": "mean of at least three separate experiments in duplicate, other testing conditions; read-out: K iCB2R mean; cited from earlier work"}},
  "note": "Where two headings read alike, the source gives them in different places.",
  "data": [
    {"compound": "6‐Bromo‐1‐(4‐fluorobenzyl)‐2‐oxo‐N‐(1,2‐closo‐dicarba‐dodecaborane)‐1,2‐dihydro‐1,8‐naphthyridine‐3‐carboxamide [2 o]", "values": [
      {"measurement": "Selectivity index (SI)", "setting": "human CB2R", "value": 3378},
      {"measurement": "Ki", "setting": "human CB2R", "value": 0.029, "unit": "µM"},
      {"measurement": "Ki", "setting": "human CB1R", "value": 97.8, "unit": "µM"},
      {"measurement": "purity after 2.5 d (stability)", "setting": "[1]; after 2.5 d", "value": "> 98", "unit": "%"}
    ]},
    {"compound": "Sodium 1‐(4‐Fluorobenzyl)‐6‐iodo‐2‐oxo‐N‐(7,8‐nido‐dicarba‐dodecahydroundecaborate(–1))‐1,2‐dihydro‐1,8‐naphthyridine‐3‐carboxamide [Compound 5]", "values": [
      {"measurement": "Selectivity index (SI)", "setting": "human CB2R", "value": 247},
      {"measurement": "K iCB2R mean", "setting": "human CB2R", "value": "very low affinity"},
      {"measurement": "Ki", "setting": "human CB2R", "value": 0.368, "unit": "µM"},
      {"measurement": "Ki", "setting": "human CB1R", "value": 90.8, "unit": "µM"},
      {"measurement": "purity after 1 d (stability)", "setting": "[1]", "value": "> 97", "unit": "%"}
    ]},
    {"compound": "(Z)‐N‐[3‐(4‐fluoro[^18F]butyl‐d 8)‐4,5‐dimethylthiazole‐2(3 H)‐ylidene]‐(1,7‐dicarba‐closo‐dodecaboranyl)‐carboxamide [[18F]LUZ5-d8]", "values": [
      {"measurement": "Ki", "setting": "CB2R [2]", "value": 0.0008, "unit": "µM"}
    ]},
    {"compound": "1‐(4‐Fluorobenzyl)‐6‐iodo‐2‐oxo‐N‐(1,2‐closo‐dicarba‐dodecaborane)‐1,2‐dihydro‐1,8‐naphthyridine‐3‐carboxamide [3 o]", "values": [
      {"measurement": "Selectivity index (SI)", "setting": "human CB2R", "value": 260},
      {"measurement": "Ki", "setting": "human CB2R", "value": 0.0152, "unit": "µM"},
      {"measurement": "Ki", "setting": "human CB1R", "value": 3.94, "unit": "µM"},
      {"measurement": "purity after 6 h (stability)", "setting": "[1]", "value": 93, "unit": "%"},
      {"measurement": "purity after 6 h (stability)", "setting": "[1]; listed as 3o", "value": "~ 93%"}
    ]},
    {"compound": "6‐Bromo‐1‐(4‐fluorobenzyl)‐2‐oxo‐N‐(1,12‐closo‐dicarba‐dodecaborane)‐1,2‐dihydro‐1,8‐naphthyridine‐3‐carboxamide [2 p]", "values": [
      {"measurement": "Selectivity index (SI)", "setting": "human CB2R", "value": 937},
      {"measurement": "Ki", "setting": "human CB2R", "value": 0.00771, "unit": "µM"},
      {"measurement": "Ki", "setting": "human CB1R", "value": 7.22, "unit": "µM"}
    ]},
    {"compound": "1‐(4‐Fluorobenzyl)‐6‐iodo‐2‐oxo‐N‐(1,12‐closo‐dicarba‐dodecaborane)‐1,2‐dihydro‐1,8‐naphthyridine‐3‐carboxamide [3 p]", "values": [
      {"measurement": "Selectivity index (SI)", "setting": "human CB2R", "value": 730},
      {"measurement": "Ki", "setting": "human CB2R", "value": 0.00755, "unit": "µM"},
      {"measurement": "Ki", "setting": "human CB1R", "value": 5.51, "unit": "µM"},
      {"measurement": "purity after 1 d (stability)", "setting": "[1]", "value": "> 98", "unit": "%"}
    ]},
    {"compound": "C[C@H]1CC[C@@H](NC(=O)c2cc3cc(Br)cnc3n(Cc3ccc(F)cc3)c2=O)CC1", "note": "[L1 (cis)]", "values": [
      {"measurement": "Selectivity index (SI)", "setting": "CB2R [3]", "value": 1010},
      {"measurement": "Ki", "setting": "CB1R", "value": "0.121 ± 0.00532", "unit": "µM"},
      {"measurement": "Ki", "setting": "CB2R [4]", "value": "0.00012 ± 2e-06", "unit": "µM"}
    ]},
    {"compound": "Sodium 6‐Bromo‐1‐(4‐fluorobenzyl)‐2‐oxo‐N‐(7,8‐nido‐dicarba‐dodecahydroundecaborate(–1))‐1,2‐dihydro‐1,8‐naphthyridine‐3‐carboxamide [Compound 4]", "values": [
      {"measurement": "Selectivity index (SI)", "setting": "human CB2R", "value": 62},
      {"measurement": "K iCB2R mean", "setting": "human CB2R", "value": "very low affinity"},
      {"measurement": "Ki", "setting": "human CB2R", "value": 0.857, "unit": "µM"},
      {"measurement": "Ki", "setting": "human CB1R", "value": 53.2, "unit": "µM"},
      {"measurement": "purity after 3 d (stability)", "setting": "[1]; after 3 d", "value": "~ 98%"}
    ]},
    {"compound": "6‐Bromo‐1‐(4‐fluorobenzyl)‐2‐oxo‐N‐(1,7‐closo‐dicarba‐dodecaborane)‐1,2‐dihydro‐1,8‐naphthyridine‐3‐carboxamide [2 m]", "values": [
      {"measurement": "Selectivity index (SI)", "setting": "human CB2R", "value": 273},
      {"measurement": "Ki", "setting": "human CB2R", "value": 0.00616, "unit": "µM"},
      {"measurement": "Ki", "setting": "human CB1R", "value": 1.68, "unit": "µM"},
      {"measurement": "purity after 1 d (stability)", "setting": "[1]", "value": "~ 98%"}
    ]},
    {"compound": "1‐(4‐Fluorobenzyl)‐6‐iodo‐2‐oxo‐N‐(1,7‐closo‐dicarba‐dodecaborane)‐1,2‐dihydro‐1,8‐naphthyridine‐3‐carboxamide [3 m]", "values": [
      {"measurement": "Selectivity index (SI)", "setting": "human CB2R", "value": 877},
      {"measurement": "Ki", "setting": "human CB2R", "value": 0.00695, "unit": "µM"},
      {"measurement": "Ki", "setting": "human CB1R", "value": 6.09, "unit": "µM"},
      {"measurement": "purity after 1 d (stability)", "setting": "[1]", "value": "~ 98%"}
    ]}
  ]
}
